The source of these data is BindingDB's records for patent US20250195521 (Revolution Medicines, 2025).

Among the targets are GTPase KRas [G13C] (Homo sapiens, UniProt P01116, G13C); GTPase NRas [G12C] (Homo sapiens, UniProt P01111, G12C); GTPase KRas (Homo sapiens, UniProt P01116); GTPase KRas [G12V] (Homo sapiens, UniProt P01116, G12V); kras g13d (Homo sapiens, UniProt P01116, G13D); GTPase KRas [G12C] (Homo sapiens, UniProt P01116, G12C); GTPase KRas [G12D] (Homo sapiens, UniProt P01116, G12D); GTPase NRas (Homo sapiens, UniProt P01111); GTPase NRas [Q61R] (Homo sapiens, UniProt P01111, Q61R); GTPase NRas [Q61K] (Homo sapiens, UniProt P01111, Q61K); GTPase KRas [Q61H] (Homo sapiens, UniProt P01116, Q61H).

Some results are limits rather than exact numbers.

Chain of GTPase KRas [G12D] (P01116 whole entry G12D): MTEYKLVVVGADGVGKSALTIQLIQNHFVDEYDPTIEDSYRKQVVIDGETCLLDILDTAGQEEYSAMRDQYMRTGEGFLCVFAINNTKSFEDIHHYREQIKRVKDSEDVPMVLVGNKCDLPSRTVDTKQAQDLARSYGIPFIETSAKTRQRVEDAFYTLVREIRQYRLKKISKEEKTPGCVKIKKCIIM
Chain of GTPase KRas [G12V] (P01116 whole entry G12V): as the sequence (P01116 whole entry G12D) above, with D12V counted along it
Chain of GTPase KRas (P01116 whole entry): as the sequence (P01116 whole entry G12D) above, with D12G counted along it
Chain of GTPase KRas [G13C] (P01116 whole entry G13C): as the sequence (P01116 whole entry G12D) above, with D12G, G13C counted along it
Chain of GTPase KRas [G12C] (P01116 whole entry G12C): as the sequence (P01116 whole entry G12D) above, with D12C counted along it
Chain of GTPase NRas [G12C] (P01111 whole entry G12C): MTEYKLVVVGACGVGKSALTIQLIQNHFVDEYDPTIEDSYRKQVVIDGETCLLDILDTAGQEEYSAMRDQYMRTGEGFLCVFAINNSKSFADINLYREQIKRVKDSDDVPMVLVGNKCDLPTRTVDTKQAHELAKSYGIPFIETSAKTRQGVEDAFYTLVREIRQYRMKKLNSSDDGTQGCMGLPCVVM
Chain of kras g13d (P01116 whole entry G13D): as the sequence (P01116 whole entry G12D) above, with D12G, G13D counted along it
Chain of GTPase NRas [Q61R] (P01111 whole entry Q61R): as the sequence (P01111 whole entry G12C) above, with C12G, Q61R counted along it
Chain of GTPase KRas [Q61H] (P01116 whole entry Q61H): as the sequence (P01116 whole entry G12D) above, with D12G, Q61H counted along it
Chain of GTPase NRas (P01111 whole entry): as the sequence (P01111 whole entry G12C) above, with C12G counted along it
Chain of GTPase NRas [Q61K] (P01111 whole entry Q61K): as the sequence (P01111 whole entry G12C) above, with C12G, Q61K counted along it

Turning to `CCN1C[C@@H](C(=O)N(C)[C@H](C(=O)N[C@H]2Cc3cc(O)cc(c3)-c3ccc4c(c3)c(c(-c3cnccc3COC)n4CC)CC(C)(C)COC(=O)[C@@H]3CCCN(N3)C2=O)C(C)C)CC1=O` [US20250195521, Example A16], the half-maximal inhibitory concentration (IC50) (commonly the midpoint of a concentration-inhibition curve) against GTPase KRas [G13C] is 550 nM; against GTPase NRas [G12C] it was “in the range around 550 nM”; against GTPase KRas, “in the range around 550 nM”; on GTPase KRas [G12V] it was “in the range around 550 nM”; on kras g13d, “in the range around 550 nM”; against GTPase KRas [G12C] it was 55 nM. For the same compound, the IC50 result on GTPase KRas [G12D] was “in the range around 5500 nM”.
In the case of `CCn1c(-c2cnccc2COC)c2c3cc(ccc31)-c1cc(O)cc(c1)C[C@H](NC(=O)[C@H](C(C)C)N(C)C(=O)[C@@H]1NC[C@@H]3C[C@@H]31)C(=O)N1CCC[C@H](N1)C(=O)OCC(C)(C)C2` [US20250195521, Example A78], the IC50 at GTPase KRas [G13C] is 55 nM; against GTPase NRas [G12C], “in the range around 550 nM”; against GTPase KRas, “in the range around 550 nM”; against GTPase KRas [G12V], “in the range around 550 nM”; at kras g13d, “in the range around 550 nM”; on GTPase KRas [G12C], 550 nM. Further, the IC50 result against GTPase KRas [G12D] is “in the range around 550 nM”.
Consider `CCn1c(-c2cccnc2[C@H](C)OC)c2c3cc(ccc31)-c1cc(O)cc(c1)C[C@H](NC(=O)[C@H](C(C)C)N(C)C(=O)[C@H]1CCN(C(=O)OC(C)C)C1)C(=O)N1CCC[C@H](N1)C(=O)OCC(C)(C)C2` [US20250195521, Example A117], for which the IC50 on GTPase KRas [G12V] was more than 10000 nM.
`CCn1c(-c2cccnc2[C@H](C)OC)c2c3cc(ccc31)-c1csc(n1)C[C@H](NC(=O)[C@H](C(C)C)N(C)C(=O)OC)C(=O)N1CCC[C@H](N1)C(=O)OCC(C)(C)C2` [US20250195521, Example A138]: the IC50 at GTPase KRas [G13C] was 550 nM; on GTPase NRas [G12C], “in the range around 550 nM”; at GTPase NRas, “in the range around 550 nM”; against GTPase KRas, “in the range around 550 nM”; on GTPase KRas [G12V], “in the range around 550 nM”; at GTPase NRas [Q61R], “in the range around 550 nM”. Moreover, the IC50 entry was “in the range around 550 nM” against GTPase NRas [Q61K]; “in the range around 550 nM” against GTPase KRas [Q61H]; “in the range around 5500 nM” against kras g13d; 550 nM against GTPase KRas [G12C]; “in the range around 5500 nM” against GTPase KRas [G12D].
On GTPase KRas [G12D], `CCn1c(-c2cccnc2[C@H](C)OC)c2c3cc(ccc31)-c1cc(O)cc(c1)C[C@H](NC(=O)C1[C@H]3COC[C@@H]13)C(=O)N1CCC[C@H](N1)C(=O)OCC(C)(C)C2` (stereo not given in full) [US20250195521, Example A253] had an IC50 of more than 10000 nM.
As for `CCn1c(-c2cccnc2[C@H](C)OC)c2c3cc(ccc31)-c1csc(n1)C[C@H](NC(=O)[C@H](C(C)C)N(C)C(=O)N1CCC[C@@H](N(C)C)CC1)C(=O)N1CCC[C@H](N1)C(=O)OCC(C)(C)C2` [US20250195521, Example A494], the IC50 entry against GTPase NRas [G12C], at GTPase NRas, on GTPase KRas, against GTPase NRas [Q61R], against GTPase NRas [Q61K] and against GTPase KRas [Q61H] was “in the range around 55 nM” each time. Also, the IC50 at GTPase KRas [G12C] is 55 nM; on GTPase KRas [G12D], “in the range around 55 nM”.
